Results: ChEMBL document CHEMBL5291721, “A preclinical secondary pharmacology resource illuminates target-adverse drug reaction associations of marketed drugs” (Nat Commun, 2023)

What was measured:
[1] = target: T1, Alpha-2C adrenergic receptor (Homo sapiens, UniProt P18825); format: functional
T1 sequence (P18825 whole entry): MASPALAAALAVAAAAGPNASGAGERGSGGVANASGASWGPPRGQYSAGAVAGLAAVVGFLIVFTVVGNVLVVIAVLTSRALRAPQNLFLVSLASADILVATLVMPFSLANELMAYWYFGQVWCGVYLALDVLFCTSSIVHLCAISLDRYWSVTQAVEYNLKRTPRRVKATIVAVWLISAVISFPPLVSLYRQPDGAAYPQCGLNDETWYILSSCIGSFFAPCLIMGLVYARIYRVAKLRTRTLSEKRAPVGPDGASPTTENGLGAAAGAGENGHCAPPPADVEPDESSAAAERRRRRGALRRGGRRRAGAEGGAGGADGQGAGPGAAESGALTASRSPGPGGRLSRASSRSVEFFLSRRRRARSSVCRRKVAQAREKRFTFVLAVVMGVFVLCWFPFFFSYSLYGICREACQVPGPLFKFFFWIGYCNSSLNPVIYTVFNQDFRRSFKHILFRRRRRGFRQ

[2] = target: T2, Estrogen receptor (Homo sapiens, UniProt P03372)
T2 sequence (P03372 whole entry): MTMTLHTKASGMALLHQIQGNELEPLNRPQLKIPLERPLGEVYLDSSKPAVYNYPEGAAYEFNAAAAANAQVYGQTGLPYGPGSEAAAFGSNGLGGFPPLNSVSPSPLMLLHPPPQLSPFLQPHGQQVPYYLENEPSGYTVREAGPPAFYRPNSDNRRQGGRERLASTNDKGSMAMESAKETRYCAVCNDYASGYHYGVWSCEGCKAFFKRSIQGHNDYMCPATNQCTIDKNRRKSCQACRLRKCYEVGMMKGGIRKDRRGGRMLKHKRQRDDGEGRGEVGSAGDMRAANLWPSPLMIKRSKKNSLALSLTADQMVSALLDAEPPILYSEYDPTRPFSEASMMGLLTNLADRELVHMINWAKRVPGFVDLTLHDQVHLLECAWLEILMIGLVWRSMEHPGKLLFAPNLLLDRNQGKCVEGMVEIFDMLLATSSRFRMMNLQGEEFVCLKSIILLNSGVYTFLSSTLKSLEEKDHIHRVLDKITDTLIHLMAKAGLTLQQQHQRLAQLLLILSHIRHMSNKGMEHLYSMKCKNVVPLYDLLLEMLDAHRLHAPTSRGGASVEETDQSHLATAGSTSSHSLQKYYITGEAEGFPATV

[3] = target: Mu-type opioid receptor (Homo sapiens, UniProt P35372); assay: biochemical; format: functional
[4] = target: T3, Progesterone receptor (Homo sapiens, UniProt P06401); format: functional
T3 sequence (P06401 whole entry): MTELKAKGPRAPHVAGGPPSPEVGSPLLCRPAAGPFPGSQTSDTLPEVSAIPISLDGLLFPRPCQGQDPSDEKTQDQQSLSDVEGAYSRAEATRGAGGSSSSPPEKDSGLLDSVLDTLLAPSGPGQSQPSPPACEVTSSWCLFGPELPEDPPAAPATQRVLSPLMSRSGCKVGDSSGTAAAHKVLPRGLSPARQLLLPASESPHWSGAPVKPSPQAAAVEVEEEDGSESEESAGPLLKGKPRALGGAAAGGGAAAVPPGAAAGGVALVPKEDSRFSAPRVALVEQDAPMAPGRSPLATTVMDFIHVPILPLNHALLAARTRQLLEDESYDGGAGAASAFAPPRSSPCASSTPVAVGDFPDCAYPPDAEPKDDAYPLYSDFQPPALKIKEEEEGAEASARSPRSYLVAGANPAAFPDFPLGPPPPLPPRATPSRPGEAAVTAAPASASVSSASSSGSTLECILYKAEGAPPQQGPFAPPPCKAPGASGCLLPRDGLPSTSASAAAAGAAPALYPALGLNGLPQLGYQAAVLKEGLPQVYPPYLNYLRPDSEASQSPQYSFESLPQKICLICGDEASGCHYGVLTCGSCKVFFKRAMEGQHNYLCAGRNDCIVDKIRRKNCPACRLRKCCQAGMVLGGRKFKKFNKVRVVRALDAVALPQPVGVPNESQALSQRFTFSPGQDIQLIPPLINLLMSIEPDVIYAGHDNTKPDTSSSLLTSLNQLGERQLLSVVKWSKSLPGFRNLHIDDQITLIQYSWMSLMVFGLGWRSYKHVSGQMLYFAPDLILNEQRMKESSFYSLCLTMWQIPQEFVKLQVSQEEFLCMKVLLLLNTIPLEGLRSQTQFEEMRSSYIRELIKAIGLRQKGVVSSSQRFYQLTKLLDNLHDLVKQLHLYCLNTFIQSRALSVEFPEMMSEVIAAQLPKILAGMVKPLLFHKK

[5] = target: Histamine H3 receptor (Homo sapiens, UniProt Q9Y5N1)
[6] = target: T4, Alpha-2B adrenergic receptor (Homo sapiens, UniProt P18089)
T4 sequence (P18089 whole entry): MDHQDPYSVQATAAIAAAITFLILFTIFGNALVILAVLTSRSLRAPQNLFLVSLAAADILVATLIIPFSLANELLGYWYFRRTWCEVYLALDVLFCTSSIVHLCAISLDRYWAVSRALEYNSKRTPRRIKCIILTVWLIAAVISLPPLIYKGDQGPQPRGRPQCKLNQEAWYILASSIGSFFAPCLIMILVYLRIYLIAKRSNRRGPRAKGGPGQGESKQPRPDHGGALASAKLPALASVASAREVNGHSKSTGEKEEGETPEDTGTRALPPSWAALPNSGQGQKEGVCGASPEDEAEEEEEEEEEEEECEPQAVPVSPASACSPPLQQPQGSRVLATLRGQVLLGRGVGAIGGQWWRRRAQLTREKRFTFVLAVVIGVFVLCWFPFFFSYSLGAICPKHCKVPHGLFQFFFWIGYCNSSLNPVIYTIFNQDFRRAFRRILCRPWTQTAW

[7] = target: 5-hydroxytryptamine receptor 2A (Homo sapiens, UniProt P28223); format: functional, cell-based
Further: assay procedure not described here.

5-hydroxytryptamine receptor 2A, sequence (P28223 whole entry): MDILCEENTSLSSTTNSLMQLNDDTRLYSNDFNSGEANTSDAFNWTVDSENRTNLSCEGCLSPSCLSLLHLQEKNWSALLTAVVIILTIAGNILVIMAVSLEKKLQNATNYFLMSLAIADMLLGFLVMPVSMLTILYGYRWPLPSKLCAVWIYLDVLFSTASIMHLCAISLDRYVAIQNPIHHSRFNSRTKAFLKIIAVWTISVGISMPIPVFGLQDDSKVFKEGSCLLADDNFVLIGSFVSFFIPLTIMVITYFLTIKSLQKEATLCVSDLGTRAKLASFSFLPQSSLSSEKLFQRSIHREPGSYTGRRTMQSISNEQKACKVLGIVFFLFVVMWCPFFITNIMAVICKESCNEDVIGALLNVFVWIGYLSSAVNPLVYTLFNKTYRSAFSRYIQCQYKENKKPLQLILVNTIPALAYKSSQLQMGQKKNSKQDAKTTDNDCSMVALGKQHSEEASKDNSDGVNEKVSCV
Mu-type opioid receptor, sequence (P35372 whole entry): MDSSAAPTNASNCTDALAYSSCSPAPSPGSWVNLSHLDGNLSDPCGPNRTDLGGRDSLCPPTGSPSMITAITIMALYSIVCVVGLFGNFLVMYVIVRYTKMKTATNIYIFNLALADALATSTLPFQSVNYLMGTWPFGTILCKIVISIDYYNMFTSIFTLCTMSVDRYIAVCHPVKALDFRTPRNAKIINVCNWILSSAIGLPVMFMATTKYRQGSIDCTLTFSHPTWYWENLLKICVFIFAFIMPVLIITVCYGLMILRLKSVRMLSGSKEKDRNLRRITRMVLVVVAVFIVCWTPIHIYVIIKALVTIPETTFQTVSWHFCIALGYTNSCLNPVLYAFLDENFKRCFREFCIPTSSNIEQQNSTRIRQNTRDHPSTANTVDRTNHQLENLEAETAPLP
Histamine H3 receptor, sequence (Q9Y5N1 whole entry): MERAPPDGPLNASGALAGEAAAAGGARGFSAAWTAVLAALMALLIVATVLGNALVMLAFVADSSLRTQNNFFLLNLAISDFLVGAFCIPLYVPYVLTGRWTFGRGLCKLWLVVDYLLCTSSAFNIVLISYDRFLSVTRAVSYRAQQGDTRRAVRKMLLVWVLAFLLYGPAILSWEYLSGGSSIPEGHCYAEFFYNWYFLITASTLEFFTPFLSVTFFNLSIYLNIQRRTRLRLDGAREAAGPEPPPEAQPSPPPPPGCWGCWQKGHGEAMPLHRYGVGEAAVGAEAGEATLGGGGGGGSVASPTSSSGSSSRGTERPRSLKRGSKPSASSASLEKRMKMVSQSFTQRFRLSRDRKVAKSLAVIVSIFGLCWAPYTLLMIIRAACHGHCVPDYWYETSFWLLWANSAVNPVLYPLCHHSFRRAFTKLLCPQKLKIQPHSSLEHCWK

Row | SMILES | AC50 [1] | AC50 [2] | AC50 [3] | AC50 [4] | AC50 [5] | AC50 [6] | AC50 [7]
1 | CCCNC(C)C(=O)Nc1ccccc1C (configuration not stated) [PRILOCAINE] | > 30 µM | > 30 µM | > 30 µM | > 30 µM | > 30 µM |  | 
2 | O=C1Nc2ccc(Cl)cc2C(c2ccccc2)=NC1O (configuration not stated) [OXAZEPAM] | > 10 µM |  |  |  | > 10 µM | > 10 µM | > 30 µM
3 | Nc1ccc(C(=O)O)c(O)c1 [AMINOSALICYLIC ACID] | > 30 µM |  | > 30 µM | > 30 µM | > 30 µM |  | 
4 | COc1cccc2c1C(=O)c1c(O)c3c(c(O)c1C2=O)C[C@@](O)(C(C)=O)C[C@@H]3O[C@H]1C[C@H](N)[C@H](O)[C@H](C)O1 [DAUNORUBICIN] | 17.5 µM |  | > 30 µM | 7.42 µM | 18 µM |  | 
5 | CCn1cc(C(=O)O)c(=O)c2cc(F)c(N3CCN(C)CC3)cc21 [PEFLOXACIN] | > 30 µM | > 30 µM | > 30 µM | > 30 µM | > 30 µM |  | 
6 | CN1[C@@H]2CC[C@H]1C[C@@H](OC(=O)c1c[nH]c3ccccc13)C2 [TROPISETRON] | 27 µM |  | > 30 µM |  | > 30 µM |  | 
7 | COC1=C(OC)C(=O)C(CCCCCCCCCCO)=C(C)C1=O [IDEBENONE] | > 10 µM | > 30 µM |  |  | > 10 µM |  | 
8 | C[n+]1ccccc1/C=N/O [PRALIDOXIME] | > 30 µM |  | > 30 µM |  |  |  | 
9 | C[C@@H]1C[C@H]2[C@@H]3C[C@H](F)C4=CC(=O)C=C[C@]4(C)[C@@]3(F)[C@@H](O)C[C@]2(C)[C@H]1C(=O)CO [DIFLUCORTOLONE] | > 30 µM |  |  | 0.052 µM |  |  | > 30 µM
10 | COc1cc(OC)c(C(=O)CCCN2CCCC2)c(OC)c1 [BUFLOMEDIL] | 13 µM |  | > 30 µM | > 30 µM | 20 µM |  | 
11 | CC1(C)C(/C=C/C=C/C=C/C=C2\N(CCCCS(=O)(=O)O)c3ccc4ccccc4c3C2(C)C)=[N+](CCCCS(=O)(=O)[O-])c2ccc3ccccc3c21 [INDOCYANINE GREEN ACID FORM] | 9.7 µM |  |  | > 30 µM |  | 6.9 µM | 
12 | Cc1cc2nc3c(=O)[nH]c(=O)nc-3n(C[C@H](O)[C@H](O)[C@H](O)COP(=O)(O)O)c2cc1C [RIBOFLAVIN 5'-PHOSPHATE] | > 30 µM | 3.7 µM | > 30 µM | > 30 µM | > 30 µM | > 30 µM | 
13 | CC(=O)OCC(CCn1cnc2cnc(N)nc21)COC(C)=O [FAMCICLOVIR] | > 10 µM | > 30 µM |  |  | > 10 µM |  | 
14 | CCCCCCNC(=O)n1cc(F)c(=O)[nH]c1=O [CARMOFUR] | > 30 µM |  | > 30 µM | > 30 µM | > 30 µM |  | 
15 | NS(=O)(=O)c1cc2c(cc1C(F)(F)F)NC(Cc1ccccc1)NS2(=O)=O (configuration not stated) [BENDROFLUMETHIAZIDE] | > 10 µM |  |  | > 10 µM | > 10 µM | > 10 µM | > 10 µM
16 | O=C1CN=C(c2ccccc2)c2cc(Cl)ccc2N1 [NORDAZEPAM] | > 10 µM | > 30 µM |  |  | > 10 µM | > 10 µM | 
